Measurements published in patent US20240100072A1, “SUBCUTANEOUSLY ADMINISTERED TREATMENTS FOR ADVANCED PARKINSON'S DISEASE” (AbbVie Inc., priority 2021, published 2024).

Key:
[1] = Metabolism and elimination; details: in vivo; for half-life: human
Description: Levodopa is mainly eliminated via metabolism by the aromatic amino acid decarboxylase (AAAD) and the catechol-O-methyl-transferase (COMT) enzymes. Other routes of metabolism are transamination and oxidation. The decarboxylation of levodopa to dopamine by AAAD is the major enzymatic pathway when no enzyme inhibitor is co-administered. O-methylation of levodopa by COMT forms 3-O-methyldopa. […] These 2 metabolites are primarily eliminated in the urine unchanged or as glucuronide conjugates.

plasma proteins = experiment: Distribution: erythrocyte/plasma partitioning, plasma protein binding, blood-brain barrier; format: in vitro ADME
Description: Levodopa is transported into the brain by the carrier mechanism for large neutral amino acids.

C[C@@](Cc1ccc(O)c(O)c1)(NN)C(=O)O [carbidopa]
half-life [1]: ~2 h
unchanged drug as share of the total urinary excretion [1]: 30%
blood-brain barrier passage (plasma proteins): does not cross the blood-brain barrier

N[C@@H](Cc1ccc(O)c(O)c1)C(=O)O [levodopa, L-3,4-dihydroxyphenylalanine]
half-life [1]: ~1.5 h
binding to plasma proteins (plasma proteins): < 10%
partitioning ratio between erythrocytes and plasma (plasma proteins): approximately 1
